Experimental data reported in patent US7485644B2, “N-{'4-substituted piperazine-1-sulfonylmethylalkyl}-n-hydroxyfomamide compounds as metalloproteinase inhibitors” (AstraZeneca AB, priority 2003, dated 2009).

Biological target: T1, Collagenase 3 (MMP13) (Homo sapiens, UniProt P45452)
T1 construct: made in house
Test: Collagenase 3 (MMP13) enzyme inhibition, fluorogenic peptide substrate
Format: biochemical
Details: recombinant human proMMP13 activated with APMA; 4-5 hours at 35° C., pH 7.5; fluorescence λex 328 nm, λem 393 nm; read-out: IC50 (nM), collagenase 3 (MMP13) inhibitory activity
From the text: The activity and selectivity of the compounds according to the invention may be determined using an appropriate enzyme inhibition test as described in WO 00/12478, WO 00/75108 and WO 01/62742. Collagenase 3 (MMP13) inhibitory activity may be assessed, for example, using the procedure set out below:—
Recombinant human proMMP13 may be expressed and purified as described by Knauper et al. [V. Knauper et al., (1996) The Biochemical Journal 271:1544-1550 (1996)]. The purified enzyme can be used to monitor inhibitors of activity as follows: purified proMMP13 is activated using 1 mM amino phenyl mercuric […] (APMA), 20 hours at 21° C.; the activated MMP13 (11.25 ng per assay) is incubated for 4-5 hours at 35° C. in assay buffer (0.1M Tris-HCl, pH 7.5 containing 0.1M NaCl, 20 mM CaCl2, 0.02 mM ZnCl and 0.05% (w/v) Brij 35 using the synthetic substrate 7-methoxycoumarin-4-yl)acetyl.Pro.Leu.Gly.Leu.N-3-(2,4-dinitrophenyl)-L-2,3-diaminopropionyl.Ala.Arg.NH2 in the presence or absence of inhibitors. Activity is determined by measuring the fluorescence at λex 328 nm and λem 393 nm. By measuring the activity at a range of concentrations, a binding curve can be generated from which the IC50 can be determined, this figure being the inhibitor concentration at which the enzyme activity is reduced by 50%.

Point of comparison: `O=CN(O)C(CS(=O)(=O)N1CCN(c2ncc(OCC(F)(F)F)cn2)CC1)C1CCOCC1` (centres unmarked) [Example 2f], IC50 13 nM. Against it:
- CCC(CS(=O)(=O)N1CCN(c2ccc(OC(F)(F)C(F)F)cc2)CC1)N(O)C=O (racemic) [Example 7f] — 4.6-fold lower, 2.8 nM
- O=CN(O)C(CCc1ncc(F)cn1)CS(=O)(=O)N1CCN(c2ccc(OCC(F)(F)F)cn2)CC1 (centres unmarked) [Example 2b] — 54-fold lower, 0.24 nM
- O=CN(O)C(CS(=O)(=O)N1CCN(c2ccc(OC(F)(F)C(F)F)cc2)CC1)c1ccccc1 (centres unmarked) [Example 5, Hydroxy[1-phenyl-2-({4-[4-(1,1,2,2-tetrafluoroethoxy)phenyl]piperazin-1-yl}sulfonyl)ethyl]formamide] — 3.6-fold lower, 3.6 nM
- O=CN(O)C(CCCc1ncccn1)CS(=O)(=O)N1CCN(c2ccc(OC(F)(F)C(F)F)cc2)CC1 (centres unmarked) [Example 7a] — 110-fold lower, 0.12 nM
- O=CN(O)C(CCc1ncc(F)cn1)CS(=O)(=O)N1CCN(c2ccc(OC(F)(F)C(F)F)cc2)CC1 (centres unmarked) [Example 7c] — 68-fold lower, 0.19 nM
- O=CN(O)C(CCc1ncccn1)CS(=O)(=O)N1CCN(c2ccc(OCC(F)(F)F)cc2)CC1 (centres unmarked) [Example 8b] — 8.7-fold lower, 1.5 nM
- O=CN(O)C(CS(=O)(=O)N1CCN(c2ccc(OCC(F)(F)F)cc2)CC1)C1CCOCC1 (centres unmarked) [Example 8g] — 3.2-fold lower, 4 nM

Test system: not given
Test: not given
Details: not given

First: O=CN(O)[C@@H](CCCc1ncccn1)CS(=O)(=O)N1CCN(c2ncc(OCC(F)(F)F)cn2)CC1 [Example 1, Hydroxy{(1S)-4-pyrimidin-2-yl-1-[({4-[5-(2,2,2-trifluoroethoxy)pyrimidin-2-yl]piperazin-1-yl}sulfonyl)methyl]butyl}formamide]
Second: O=CN(O)[C@@H](CCc1ncccn1)CS(=O)(=O)N1CCN(c2ccc(OCC(F)(F)F)cn2)CC1 [Example 3, Hydroxy{(1S)-3-pyrimidin-2-yl-1-[({4-[5-(2,2,2-trifluoroethoxy)pyridin-2-yl]piperazin-1-yl}sulfonyl)methyl]propyl}formamide]
The melting point of the first is lower: 129 to 133 °C for the first, 149 to 151 °C for the second.

Compound `O=CN(O)[C@H](CS(=O)(=O)N1CCN(c2ccc(OC(F)(F)C(F)F)cc2)CC1)C1CCOCC1` [Example 4, Hydroxy[(1S)-2-({4-[4-(1,1,2,2-tetrafluoroethoxy)phenyl]piperazin-1-yl}sulfonyl)-1-(tetrahydro-2H-pyran-4-yl)ethyl]formamide] has a melting point of 175 to 176 °C.
